Source: BindingDB's records for doi:10.1016/j.chembiol.2007.10.010 (University of Munich, 2007)

Target: T1, 3-phosphoinositide-dependent protein kinase 1 (Homo sapiens, UniProt O15530)
T1 sequence (O15530 whole entry): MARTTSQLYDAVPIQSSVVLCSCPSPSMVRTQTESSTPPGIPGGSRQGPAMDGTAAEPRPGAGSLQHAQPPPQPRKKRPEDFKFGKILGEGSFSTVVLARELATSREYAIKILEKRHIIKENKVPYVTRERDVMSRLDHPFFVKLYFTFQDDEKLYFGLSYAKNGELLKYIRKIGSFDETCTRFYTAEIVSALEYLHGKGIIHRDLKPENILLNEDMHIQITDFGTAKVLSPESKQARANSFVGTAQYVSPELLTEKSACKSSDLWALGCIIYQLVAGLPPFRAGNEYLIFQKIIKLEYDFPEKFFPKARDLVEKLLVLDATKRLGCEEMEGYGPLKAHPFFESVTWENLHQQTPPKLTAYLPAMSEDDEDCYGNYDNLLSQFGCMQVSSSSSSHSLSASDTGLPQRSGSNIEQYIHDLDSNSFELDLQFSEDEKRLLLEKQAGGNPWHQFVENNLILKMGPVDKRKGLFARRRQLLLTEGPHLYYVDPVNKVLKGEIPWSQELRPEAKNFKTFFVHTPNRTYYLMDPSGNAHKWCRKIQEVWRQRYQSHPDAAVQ
Assay: In Vitro Kinase Assay
Settings: pH 7.5; 30 °C
Description: PDK1 protein kinase was expressed in Sf9 insect cells as human recombinant GST-fusion protein by means of the baculovirus expression systems. Protein kinase assay (33PanQinase assay) was used for measuring the kinase activity of PDK1.

SMILES | IC50 [µM]
O=Nc1c(C2C(=O)Nc3ccc(Br)cc32)[nH]c2ccccc12 (configuration not stated) [5BIO] | > 100
O=Nc1c(C2C(=O)Nc3ccccc32)[nH]c2ccccc12 (configuration not stated) [Indirubin-3 -monoxime] | > 100
